The test system of this assay is human patient-derived xenograft (PDX) derived from a human ovarian tumor (CTG-1180, Champions Oncology). Briefly: In vivo xenograft efficacy (human ovarian tumor PDX) in tumor-bearing mice. Also on record: species or system Athymic Nude-Foxn1nu mice. As to the method: A nanoparticle composition comprising Compound 1 and albumin from Example 2 was tested in an in vivo xenograft efficacy model in tumor-bearing mice. Athymic Nude-Foxn1nu mice were implanted subcutaneously with a human patient-derived xenograft (PDX) derived from a human ovarian tumor (CTG-1180, Champions Oncology). Tumors were allowed grow to ˜200 cubic mm before commencement of treatment (day 0). Lyophilized nanoparticle formulations of Compound 1 were rehydrated in 5% dextrose in sterile water (D5W) immediately prior to dosing. Mice were then dosed intravenously with various concentrations of gemcitabine, nanoparticle formulation of Compound 1, or vehicle control (dissolved directly in D5W and dosed in mg of gemcitabine/compound 1 per kg of mouse body weight abbreviated as mpk) once weekly for 4 weeks (mice were dosed on day 0, 7, 14, and 21 with no treatments thereafter). […] Tumor volume was assessed by caliper measurement using the following formula: Tumor volume=width^2×length×0.52. Tumor growth inhibition (TGI) at day 28 was assessed using the following formula: […]. […]
(In general: A xenograft is tissue or cells of one species grown in another, often human tumour cells in immunodeficient mice.)

Turning to `Nc1ccn([C@@H]2O[C@H](CO)[C@@H](O)C2(F)F)c(=O)n1` [gemcitabine, 2′,2′-difluoro-2′-deoxycytidine], the “Tumor growth inhibition (TGI) at day 28” value is 88% (40 mpk (152 μmol/kg) intravenously once weekly for 4 weeks (day 0, 7, 14, 21)) and 98% (100 mpk (380 μmol/kg) intravenously once weekly for 4 weeks (day 0, 7, 14, 21)).
